Results taken from patent US10703746B2, “Mutant IDH1 inhibitors useful for treating cancer” (THE UNITED STATES OF AMERICA, AS REPRESENTED BY THE …, priority 2014, dated 2020).

Assays:
IDH1 R132C = IDH1 R132C (Homo sapiens, UniProt O75874, R132C); assay: IDH1 R132C enzymatic assay (NADPH depletion coupled to diaphorase/resazurin); format: biochemical; settings: IDH1 R132C enzymatic inhibition, IC50 class
How it was run: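 NADPH depletion, read via diaphorase/resazurin coupling, after adding substrate at 0.6 mM α-KG and 0.012 mM NADPH. Beforehand, 0.00032 mg/mL enzyme sat with compound 30 min at room temperature in pH 6.5 potassium phosphate buffer with MgCl2, glycerol and BSA.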

IDH1 R132H = IDH1 R132H (Homo sapiens, UniProt O75874, R132H); assay: IDH1 R132H enzymatic assay (NADPH depletion coupled to diaphorase/resazurin); format: biochemical; settings: IDH1 R132H enzymatic inhibition, IC50 class
Chain of IDH1 R132H (O75874 whole entry R132H): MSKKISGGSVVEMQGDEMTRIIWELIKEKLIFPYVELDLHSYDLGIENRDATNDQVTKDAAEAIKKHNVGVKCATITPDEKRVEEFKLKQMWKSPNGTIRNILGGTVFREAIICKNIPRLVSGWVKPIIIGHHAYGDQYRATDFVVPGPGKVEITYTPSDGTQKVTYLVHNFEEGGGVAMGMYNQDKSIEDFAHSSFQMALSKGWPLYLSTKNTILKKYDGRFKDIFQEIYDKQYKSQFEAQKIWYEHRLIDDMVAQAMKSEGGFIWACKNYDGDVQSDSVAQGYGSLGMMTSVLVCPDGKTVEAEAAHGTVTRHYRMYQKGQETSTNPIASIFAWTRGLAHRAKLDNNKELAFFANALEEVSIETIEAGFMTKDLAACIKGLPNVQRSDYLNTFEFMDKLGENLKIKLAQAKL

Chain of IDH1 R132C (O75874 whole entry R132C): as the sequence (O75874 whole entry R132H) above, with H132C counted along it

SMILES | IC50 (IDH1 R132C) [nM] | IC50 (IDH1 R132H) [nM]
CCc1cccc(CC)c1-n1c(C)c(C(=O)NCC(C)(C)C)cc(-c2nc(-c3ccc(Cl)cc3)cs2)c1=O [Compound 146] | 1000 to 5000 | > 20000
CCc1cccc(CC)c1-n1c(CC(C)C)c(C(=O)N2CCNCC2C(=O)OC)cc(-c2nc(-c3ccc(Cl)cc3)cs2)c1=O (centres unmarked) [Compound 147] | < 300 | 1000 to 5000
CCc1cccc(CC)c1-n1c2c(cc(-c3nc(-c4ccc(F)cc4)cs3)c1=O)C(=O)CC(C)(C)C2 [Compound 148] | 300 to 1000 | 300 to 1000
COc1ccc(OC)c(-n2c3c(cc(-c4nc5ccc(Cl)cc5s4)c2=O)C(=O)CC(C)(C)C3)c1 [Compound 149] | 1000 to 5000 | > 20000
CC1(C)CC(=O)c2cc(-c3nc(-c4ccc(Cl)cc4)cs3)c(=O)n(-c3ccccc3)c2C1 [Compound 150] | 5000 to 20000 | 5000 to 20000
CCc1cccc(CC)c1-n1c(C)c(C(=O)NC[C@@H](C)O)cc(-c2nc(-c3ccc(Cl)cc3)cs2)c1=O [Compound 151] | 300 to 1000 | 1000 to 5000
CCc1cccc(CC)c1-n1c(C)c(C(=O)N(C)CCN)cc(-c2nc(-c3ccc(Cl)cc3)cs2)c1=O [Compound 152] | 1000 to 5000 | 1000 to 5000
CCc1cccc(CC)c1-n1c(C)c(C(=O)NCCO)cc(-c2nc(-c3ccc(Cl)cc3)cs2)c1=O [Compound 153] | 1000 to 5000 | 300 to 1000
COc1ccc(OC)c(-n2c3c(cc(-n4cnc(-c5ccccc5)c4)c2=O)C(=O)CC(C)(C)C3)c1 [Compound 154] | 5000 to 20000 | 5000 to 20000
CCc1cccc(CC)c1-n1c(CC(C)C)c(C(=O)N2CCNC(=O)C2c2ccccc2)cc(-c2nc(-c3ccc(Cl)cc3)cs2)c1=O (centres unmarked) [Compound 155] | < 300 | 300 to 1000
CCc1cccc(CC)c1-n1c(C)c(C(=O)N2CCCCC2)cc(-c2nc(-c3ccc(Cl)cc3)cs2)c1=O [Compound 156] | 1000 to 5000 | 1000 to 5000
COc1ccc(OC)c(-n2c3c(cc(-c4ccn(-c5ccccc5)n4)c2=O)C(=O)CC(C)(C)C3)c1 [Compound 158] | 1000 to 5000 | 1000 to 5000
CCc1cccc(CC)c1-n1c(CC(C)C)c(C(=O)NC2CCCCC2O)cc(-c2nc(-c3ccc(Cl)cc3)cs2)c1=O (centres unmarked) [Compound 159] | 1000 to 5000 | 1000 to 5000
CCc1cccc(CC)c1-n1c(CC(C)C)c(C(=O)N2CCNCC2)cc(-c2nc(-c3ccc(C(C)(C)C)cc3)c(C)s2)c1=O [Compound 160] | 1000 to 5000 | 1000 to 5000
CCc1cccc(CC)c1-n1c2c(cc(-c3nc(-c4cnc(C)nc4)c(C)s3)c1=O)C(=O)CC(C)(C)C2 [Compound 161] | 1000 to 5000 | 5000 to 20000
CCc1cccc(CC)c1-n1c2c(cc(-c3nc(-c4ccc(C(=O)O)cc4)cs3)c1=O)C(=O)CC(C)(C)C2 [Compound 162] | 5000 to 20000 | > 20000
CCc1cccc(CC)c1-n1c2c(cc(-c3nc(-c4cccc(OC)c4)cs3)c1=O)C(=O)CC(C)(C)C2 [Compound 163] | > 20000 | > 20000
CSc1ccccc1-n1c2c(cc(-c3nc(-c4ccc(Cl)cc4)cs3)c1=O)C(=O)CC(C)(C)C2 [Compound 164] | 300 to 1000 | 1000 to 5000
COc1ccc(-n2cccc(-c3nc(-c4ccc(Cl)cc4)cs3)c2=O)c(OC)c1 [Compound 165] | > 20000 | > 20000
Cc1ccc(C(=O)O)cc1-n1c2c(cc(-c3nc(-c4ccc(Cl)cc4)cs3)c1=O)C(=O)CC(C)(C)C2 [Compound 166] | 5000 to 20000 | > 20000
CC1(C)CC(=O)c2cc(-c3nc(-c4ccc(Cl)cc4)cs3)c(=O)n(-c3ccccc3Cl)c2C1 [Compound 167] | < 300 | < 300
CCc1cccc(CC)c1-n1c(C(C)C)c(C(=O)N2CCNC(=O)C2)cc(-c2nc(-c3ccc(Cl)cc3)cs2)c1=O [Compound 168] | 300 to 1000 | 300 to 1000
CCc1cccc(CC)c1-n1c(C)c(C(=O)NCCOC)cc(-c2nc(-c3ccc(Cl)cc3)cs2)c1=O [Compound 169] | 300 to 1000 | 1000 to 5000
CCc1cccc(CC)c1-n1c(-c2ccccc2)c(C#N)cc(-c2nc(-c3ccc(Cl)cc3)cs2)c1=O [Compound 170] | 1000 to 5000 | 5000 to 20000
CCc1cccc(CC)c1-n1c(CC(C)C)c(C(=O)N2CCNC(C(=O)O)C2)cc(-c2nc(-c3ccc(Cl)cc3)cs2)c1=O (centres unmarked) [Compound 171] | < 300 | < 300
CCc1cccc(CC)c1-n1c(CC(C)C)c(C(=O)NC[C@@H](N)C(=O)O)cc(-c2nc(-c3ccc(Cl)cc3)cs2)c1=O [Compound 172] | < 300 | 300 to 1000
CCc1cccc(CC)c1-n1c2c(cc(-c3nc(-c4ccccc4C)cs3)c1=O)C(=O)CC(C)(C)C2 [Compound 173] | 1000 to 5000 | 1000 to 5000
COc1c(C(=O)O)cccc1-n1c2c(cc(-c3nc(-c4ccc(Cl)cc4)cs3)c1=O)C(=O)CC(C)(C)C2 [Compound 174] | 5000 to 20000 | > 20000

SMILES | IC50 (IDH1 R132C) [nM] | IC50 (IDH1 R132H) [nM]
COc1ccc(OC)c(-n2c3c(cc(-c4nc5cc(Cl)ccc5s4)c2=O)C(=O)CC(C)(C)C3)c1 [Compound 175] | 300 to 1000 | < 300
CCc1cccc(CC)c1-n1c(C)c(C(=O)N[C@H](C)CO)cc(-c2nc(-c3ccc(Cl)cc3)cs2)c1=O [Compound 176] | 1000 to 5000 | 1000 to 5000
CC1(C)CC(=O)c2cc(-c3nc(-c4ccc(Cl)cc4)cs3)c(=O)n(-c3cn[nH]c3)c2C1 [Compound 177] | 5000 to 20000 | 5000 to 20000
CC(C)c1ccccc1-n1c2c(cc(-c3nc(-c4ccc(Cl)cc4)cs3)c1=O)C(=O)CC(C)(C)C2 [Compound 178] | 300 to 1000 | 300 to 1000
CCc1cccc(CC)c1-n1c2c(cc(-c3nc(-c4ccccc4OC)cs3)c1=O)C(=O)CC(C)(C)C2 [Compound 179] | 1000 to 5000 | 1000 to 5000
CCc1cccc(CC)c1-n1c(C)c(C(=O)Nc2ccccc2)cc(-c2nc(-c3ccc(Cl)cc3)cs2)c1=O [Compound 180] | > 20000 | > 20000
CCc1cccc(CC)c1-n1c(CC(C)C)c(C(=O)N2CCNCC2)cc(-c2nc(-c3ccc(F)cc3)c(C)s2)c1=O [Compound 181] | < 300 | < 300
Cc1ccc([N+](=O)[O-])cc1-n1c2c(cc(-c3nc(-c4ccc(Cl)cc4)cs3)c1=O)C(=O)CC(C)(C)C2 [Compound 182] | 1000 to 5000 | 1000 to 5000
CCc1cccc(CC)c1-n1c2c(cc(-c3nc(-c4ccc(OC)cc4)cs3)c1=O)C(=O)CC(C)(C)C2 [Compound 183] | 300 to 1000 | 300 to 1000
CCc1cccc(CC)c1-n1c(CC(C)C)c(C(=O)N2CCNCC2)cc(-c2ccn(-c3ccc(Cl)cc3)n2)c1=O [Compound 184] | < 300 | < 300
COc1ccc(OC)c(-n2c3c(cc(-c4ccc(-c5ccccc5)cc4)c2=O)C(=O)CC(C)(C)C3)c1 [Compound 185] | > 20000 | > 20000
CCc1cccc(CC)c1-n1c2c(cc(-c3nc(-c4ccc(C(F)(F)F)cc4)cs3)c1=O)C(=O)CC(C)(C)C2 [Compound 186] | < 300 | 300 to 1000
CCc1cccc(CC)c1-n1c(CC(C)C)c(C(=O)N[C@@H]2CCC[C@@H]2O)cc(-c2nc(-c3ccc(Cl)cc3)cs2)c1=O [Compound 187] | 300 to 1000 | 300 to 1000
CCc1cccc(CC)c1-n1c(CC(C)C)c(C(=O)N2CCNCC2)cc(-c2nc(-c3ccc(C(=O)NC4CCCC4)cc3)c(C)s2)c1=O [Compound 188] | 5000 to 20000 | 5000 to 20000
CCc1cccc(CC)c1-n1c(CC(C)C)c(C(=O)N2CCN[C@H](C(=O)O)C2)cc(-c2nc(-c3ccc(Cl)cc3)cs2)c1=O [Compound 189] | < 300 | 300 to 1000
COc1ccc(OC)c(-n2c(=O)c(-c3nc(-c4ccc(Cl)cc4)cs3)cc3c(O)cncc32)c1 [Compound 190] | > 20000 | > 20000
COc1ccc(OC)c(-n2c3c(cc(-n4ccc(-c5ccccc5)n4)c2=O)C(=O)CC(C)(C)C3)c1 [Compound 191] | 1000 to 5000 | 1000 to 5000
CCc1cccc(CC)c1-n1c(C)c(C(=O)NCc2ccccc2)cc(-c2nc(-c3ccc(Cl)cc3)cs2)c1=O [Compound 192] | 1000 to 5000 | > 20000
CCc1cccc(CC)c1-n1c(CC(C)C)c(C(=O)N2CC(=O)N[C@H](C(=O)O)C2)cc(-c2nc(-c3ccc(Cl)cc3)cs2)c1=O [Compound 193] | 300 to 1000 | 300 to 1000
CCc1cccc(CC)c1-n1c2c(cc(-c3nc(-c4ccc(Cl)cc4)cs3)c1=O)C(=O)OC2 [Compound 194] | 5000 to 20000 | > 20000
CC1(C)CC(=O)c2cc(-c3nc(-c4ccc(Cl)cc4)cs3)c(=O)n(-c3ccccc3F)c2C1 [Compound 195] | 300 to 1000 | 300 to 1000
CCc1cccc(CC)c1-n1c(CC(C)C)c(C(=O)NC(CC)CO)cc(-c2nc(-c3ccc(Cl)cc3)cs2)c1=O (centres unmarked) [Compound 196] | < 300 | 1000 to 5000
CCc1cccc(CC)c1-n1c2c(cc(-c3nc(C4=CCN(C(=O)OC(C)(C)C)CC4)c(C)s3)c1=O)C(=O)CC(C)(C)C2 [Compound 197] | 5000 to 20000 | 1000 to 5000
CCc1cccc(CC)c1-n1c(C)c(C(=O)N2CCNC(C(=O)O)C2)cc(-c2nc(-c3ccc(Cl)cc3)cs2)c1=O (centres unmarked) [Compound 198] | 300 to 1000 | 300 to 1000
CC1(C)CC(=O)c2cc(-c3nc(-c4ccc(Cl)cc4)cs3)c(=O)n(-c3ccccc3O)c2C1 [Compound 199] | 5000 to 20000 | 5000 to 20000
CCc1cccc(CC)c1-n1c2c(cc(-c3nc(-c4ccccn4)cs3)c1=O)C(=O)CC(C)(C)C2 [Compound 200] | 1000 to 5000 | 5000 to 20000
CCc1cccc(CC)c1-n1c(CC(C)C)c(C(=O)N2CCNC(CO)C2)cc(-c2nc(-c3ccc(Cl)cc3)cs2)c1=O (centres unmarked) [Compound 201] | < 300 | < 300
